Source: patent US20220372014A1, “NEUROPROTECTIVE COMPOUNDS AND METHODS OF USE THEREOF” (The Johns Hopkins University, priority 2019, published 2022)

How the values were obtained:
[1] = test system: PARP; test: MNNG-induced PAR accumulation (PARP activation), western blot; format: cell-based; settings: FIG. 12A
Procedure: Tissue lysate preparation and western blot analysis. Dissected brain regions of interest were homogenized and prepared in lysis buffer [50 mM Tris-HCl (pH 7.4), 150 mM NaCl, 1 mM EDTA, 1% Triton x-100, 0.5% SDS, 0.5% sodium-deoxycholate, phosphatase inhibitor mixture I and II (Sigma-Aldrich, St. Louis, Mo.), and complete protease inhibitor mixture (Roche, Indianapolis, Ind.)]. The samples were rotated at 4° C. for 30 min for the complete lysis and centrifugated at 15,000×g for 30 min. Protein concentrations were determined using the BCA assay (Pierce) and samples were separated using SDS polyacrylamide gels and transferred onto nitrocellulose membranes. The blots were blocked with 5% non-fat milk in TBS-T (Tris buffered saline with 0.1% Tween—20) for 1 h, probed using various primary antibodies. Target antigens were incubated with appropriate HRP-conjugated secondary antibodies (Cell signaling) and were visualized by ECL substrate.
Cell culture, transfection, primary neuronal culture and treatment. SH-SY5Y cells (ATCC) were cultured in DMEM containing 10% fetal bovine serum and penicillin/streptomycin at 37° C. under 5% C02. The cells were transfected using PolyFect reagent (Qiagen). Parthanatos was induced by the treatment of 50 μM MNNG for 15 min in SH-SY5Y cells. ABT-888 or PAAN/MIF inhibitors were pretreated with indicated concentration 1 h before MNNG treatment and cell death were assessed after 24 h. Primary cortical neurons from WT, PAAN/MIF KO, E22Q KI or P1G KI embryos were prepared as previously described See Kam et al. (2018) Science 362:eaat8407. Briefly, the cortex was dissected and cultured at embryonic day 16 in neurobasal media supplemented with B-27, 0.5 mM L-glutamine, penicillin and streptomycin (Invitrogen). Primary neurons were infected with AAV2-control, AAV2-PAAN/MIF WT, AAV2-PAAN/MIF E22Q, AAV2-PAAN/MIF E22A or AAV2-MIF P1G (ViGene Biosciences) at days in vitro (DIV) 4-5. ABT-888 or PAAN/MIF inhibitors were applied to neurons 1 h before α-syn PFF treatment. The neuron growth medium was replaced with fresh medium alone or including inhibitors every 3-4 days. α-syn PFF was added at DIV 7 and further incubated for indicated times followed by the cell death assay or biochemical experiments.

[2] = biological target: EcoRV (Escherichia coli, UniProt P04390); test: In vitro nuclease assay of EcoRV (pcDNA3 substrate); format: biochemical
Sequence of EcoRV (P04390 whole entry): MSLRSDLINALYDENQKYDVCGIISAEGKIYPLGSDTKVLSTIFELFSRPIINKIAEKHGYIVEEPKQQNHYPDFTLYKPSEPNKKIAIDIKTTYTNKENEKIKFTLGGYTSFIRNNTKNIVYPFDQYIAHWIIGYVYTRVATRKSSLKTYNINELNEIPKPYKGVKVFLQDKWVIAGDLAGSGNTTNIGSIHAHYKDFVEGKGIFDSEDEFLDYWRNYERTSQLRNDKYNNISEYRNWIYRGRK
Procedure: Nuclease assay. Purified PAAN/MIF protein (4 μM) was incubated with compounds (10 μM) in the nuclease buffer [10 mM Tris-C1 (pH 7.0) and 10 mM MgCl2] for 20 m on ice. Then samples were added with 1 μM of PAAN/MIF substrate (PS30 or RF) and incubated for 1 h at 37° C. The reaction was terminated with loading buffer containing 10 mM EDTA and separated on 15% TBE-urea polyacrylamide (PAGE) gel or 20% TBE PAGE gel. For other nucleases (EcoRI and EcoRV) assays, pcDNA3 (500 ng/reaction) was used as a substrate and 0.01 unit of Exonulcase III were incubated with small dsDNA (Sequence ID NO 4:5′-[…]-3′ and Sequence ID NO 5:5′-[…]-3′).

[3] = Measurement of compounds in brain after oral gavage (HPLC-MS); format: in vivo, C57BL/6 mice; settings: oral gavage 10 mg/kg
Procedure: The concentrations of compounds in brain tissue were measured by LC/MS. […] Bars represent means±s.e.m. ***P<0.0005, two-way ANOVA followed by Tukey's post hoc test (n=3). […] Quantification of noncleaved substrate. Bars represent mean±s.e.m. ***P<0.0005, two-way ANOVA followed by Tukey's post hoc test (n=4). […] Intensity of noncleaved genomic DNA is shown in the graph. Bars represent mean±s.e.m. ***P<0.0005, two-way ANOVA followed by Tukey's post hoc test (n=4).
Measurement of compound 121 in brain. Compound 56, compound 77, and compound 121 were resuspended in a vehicle solution and were administered at 10 mg/kg by oral gavage. After 2 h, mice were perfused with PBS and whole brain was isolated, weighed and grounded with a pestle to a very fine powder with liquid nitrogen. Then, 2-folds of acetonitrile were added to brain tissue sample and the mixture was centrifuged at 14,000 rpm, 4° C. for 10 m. The supernatant was used for analysis. The concentration of compounds in brain tissue were measured using HPLC-MS on a C-18 reverse phase HPLC column. Separations were achieved using a linear gradient of buffer B from 40% to 95% in A (A=0.1% formic acid in H20; B=0.1% formic acid in CH3CN) at a flow rate of 1 ml/min. Intracerebroventricular (ICV) injected brain samples at 0.5, 1, 2, 4 or 8 μM concentration were used for the standard curve.

Structure (SMILES) | MNNG-induced PARP activation (PAR accumulation) [1] | nuclease activity of EcoRV [2] | concentration at 2 h ([3]; C57BL/6, mouse, brain, read-out: achievable concentration in brain) | ability to cross the blood brain barrier (BBB) ([3]; 2 h) | levels detected in the brain relative to compound 56 ([3]; 2 h)
COc1ccc(CC[C@H]2OC(=O)[C@@H]3CCCCN3C(=O)C(=O)C(C)(C)COC(=O)C=CCCN(C)C(=O)CNC(=O)[C@H](C(C)C)N(C)C(=O)[C@@H](Cc3ccccc3)NC(=O)[C@H](CC(C)C)N(C)C(=O)CCC(=O)Nc3cccc2c3)cc1OC [compound 76] | did not affect | do not inhibit |  |  | 
COc1ccc(CC[C@H]2OC(=O)[C@@H]3CCCCN3C(=O)C(=O)C(C)(C)COC(=O)C=CCCN(C)C(=O)[C@@H]3CCCN3C(=O)[C@H](COC(C)(C)C)N(C)C(=O)C(c3ccccc3)NC(=O)CN(C)C(=O)COc3cccc2c3)cc1OC (stereo partly drawn) [compound 41] | did not affect | do not inhibit |  |  | 
COc1ccc(CC[C@H]2OC(=O)[C@@H]3CCCCN3C(=O)C(=O)C(C)(C)COC(=O)C=CCCN(C)C(=O)[C@@H]3CCCN3C(=O)[C@H](COC(C)(C)C)N(C)C(=O)C(c3ccccc3)NC(=O)[C@H](C)N(C)C(=O)COc3cccc2c3)cc1OC (stereo partly drawn) [compound 56] | did not affect | do not inhibit | < 0.5 µM | crossed the BBB | 
COc1ccc(CC[C@H]2OC(=O)[C@@H]3CCCCN3C(=O)C(=O)C(C)(C)COC(=O)C=CCCN(C)C(=O)[C@@H]3CCCN3C(=O)[C@H](COC(C)(C)C)N(C)C(=O)C(c3ccccc3)NC(=O)[C@H](C)N(C)C(=O)COc3cc(F)cc2c3)cc1OC (mixture of isomers) [compound 121] |  |  |  |  | ~3 fold
COc1ccc(CC[C@H]2OC(=O)[C@@H]3CCCCN3C(=O)C(=O)C(C)(C)COC(=O)C=CCCN(C)C(=O)[C@H](C)NC(=O)[C@H](C(C)C)N(C)C(=O)[C@@H](Cc3ccccc3)NC(=O)[C@H](CC(C)C)N(C)C(=O)CCC(=O)Nc3cccc2c3)cc1OC [compound 77] | did not affect | do not inhibit |  | only compound 56 crossed the BBB | 
